How the values were obtained:
[1] = tested on: ALL cell lines REH, RS4, 11 and 697 and primary ALL cells; assay: MSC-mediated chemoresistance of ALL cell lines and primary ALL cells; format: cell-based, human
Description: FIG. 4. hERG1 activity regulates the chemoresistance induced by stromal cells in leukaemic cells a). […] The percentage of Annexin V +/ PI− cells was evaluated after 48 hours of culture.
For cell counting, after 48 hours of incubation at 37° C. and 5% di CO2, cells were recovered from the plates. We next evaluated the apoptosis. During apoptosis, a series of changes of plasma membrane occurs, one of these alterations of plasma membrane is the shift of phosphatidylserine (PS) from the inner to the outer surface of the cell. The recognition of PS by macrophage allows them to engulf the apoptotic cell, preventing the inflammatory process. The analysis of PS on the plasma membrane of apoptotic cells is performed by using annexin V-fluorescein and propidium iodide (PI) assay (Annexin-V-Fluos Staining Kit, Roche).
We then identified three cell populations: i) viable cells (annexin V-/propidium iodide-), ii) apoptotic cells (early apoptosis) (annexin V+), and iii) cells in late apoptosis or necrotic (annexin V+/propidium iodide+). All the cell lines (697, RS, REH) were cultured in the absence and in the presence of human bone marrow stromal cells (MSC) in order to reproduce as closely as possible the condition that occurs in the bone marrow.
After 48 hours of incubation, cells were separated from the stroma and processed for the analysis of apotosis.

[2] = tested on: AML cell lines and primary samples; conditions: administration of hERG1 blockers; cited from earlier work
[3] = tested on: ALL(3), ALL(4), ALL(6) cells; assay: Annexin V/propidium iodide apoptosis of primary ALL cells cultured in the absence or presence of MSC; format: cell-based, human; conditions: FIG. 1C, co-culture with stromal cells
Description: The analysis is performed with the flow cytometer FACScan (Becton Dickinson). […] We next evaluated the apoptosis. […] The analysis of PS on the plasma membrane of apoptotic cells is performed by using annexin V-fluorescein and propidium iodide (PI) assay (Annexin-V-Fluos Staining Kit, Roche). The protocol of annexin requie, first, the preparation of the reaction mix, containing 20 μl of annexin and 20 μl of propidium iodide diluted in 1 ml of incubation buffer (1 ml of such mix is enough for 10 samples). About 10^6 cells are washed with PBS and centrifuged at 200 g for 5 minutes; the cell pellet is then resuspend in 100 μl of the solution previously described and incubated for 10-15 min at 15-25° C. The samples are resuspended in 500 μl of incubation buffer, before proceeding to flow cytometry analysis. […] After 48 hours of incubation, cells were separated from the stroma and processed for the analysis of apotosis.

[4] = tested on: human leukaemic cells REH; assay: In vivo model of human leukaemia: REH cells inoculated into NOD/SCID mice
Description: FIG. 2. Effect of corticosteroids, inhibitors of hERG1 and of the combination corticosteroids/hERG1 inhibitors in an in vivo model of human leukaemia disease (human leukaemic cells REH inoculated into NOD/SCID mice). Cells were inoculated by injection into the caudal vein and seven days after the inoculum, animals were treated with E4031, Dexamethasone, Dexamethasone+E4031 for two weeks; control mice were treated, with the same schedule, solely with saline solution. At the end of the two weeks of treatment, animals were sacrificed and the spleen and bone marrow were removed. Bone marrow engraftment was evaluated by measuring the percentage of hCD45^+ cells versus mCD45^+ cells by flow cytometry. For the evaluation of apoptosis, the Tunel assay was performed on the histological sections of the treated animals.
In FIG. 2 the effects of corticosteroids, hERG1 inhibitors and combination of corticosteroids/hERG1 inhibitors in an in vivo model of human leukaemic disease (human leukaemic cells REH inoculated in NOD / SCID mice) is shown. The cells were inoculated by injection into the tail vein and seven days after injection, the animals were treated with E4031, dexamethasone, dexamethasone+E4031 for two weeks; the control mice were treated, according to the same protocol, only with saline.
At the end of two weeks of treatment the animals were sacrificed and the spleens and bone marrows were removed. The bone marrow engraftment was assessed by measuring the percentage of hCD45+cells versus mCD45+cells by flow cytometry. The Tunel assay for evaluation of apoptosis was performer on bone marrow histological sections from the control and treated animals.

With `CC[C@H]1OC(=O)[C@H](C)[C@@H](O[C@H]2C[C@@](C)(OC)[C@@H](O)[C@H](C)O2)[C@H](C)[C@@H](O[C@@H]2O[C@H](C)C[C@H](N(C)C)[C@H]2O)[C@](C)(O)C[C@@H](C)C(=O)[C@H](C)[C@@H](O)[C@]1(C)O` [erythromycin, 6-(4-dimethylamino-3-hydroxy-6-methyl-Ossan-2-yl) oxy-14-ethyl-7,12,13-triidrossi-4-(5-hydroxy-4 methoxy-4,6-dimethyl -Ossan-2-yl) oxy-3,5,7,9,11,13-esametil ossaciclotetradecan-1-2,10-dione] the MSC mediated chemoresistance [1] was “overcome”.
For `CN(CCN(C)S(=O)(=O)c1ccc(NS(C)(=O)=O)cc1)c1nc2ccccc2n1C.Cl` [Way 123,398, N-metil-N-(2-(metil(1-metil-1H-benzimidazol-2-il)amino)etil)((metilsolfonil)amino)benzensolfonammide HCl], the MSC mediated chemoresistance [1] is listed as “overcome” and the cellular growth [2] is listed as “impairs cellular growth”.
For `O=C1NCCN1CCN1CCC(c2cn(-c3ccc(F)cc3)c3ccc(Cl)cc23)CC1` [sertindole, 1-(2-{4-[5-chloro-1-(4-FLUORO-PHENYL)-1H-indole-3-IL]-IL-1-Piperidine}-ethyl)-imidazolidin-2-ONE, 1-[2-[4-[5-Chloro-1-(4-fluorophenyl)-1H-indole-3-a]-1-piperidinyl]ethyl]-2-Imidazolidinone], the MSC mediated chemoresistance [1] was “overcome”.
In the case of `COc1cccc2c1C(=O)c1c(O)c3c(c(O)c1C2=O)C[C@@](O)(C(=O)CO)C[C@@H]3O[C@H]1C[C@H](N)[C@H](O)[C@H](C)O1` [doxorubicin], the “responsiveness of leukaemic cells co-cultured with stromal cells compared to leukaemic cells alone” value [3] is reported as “significantly less responsive”.
With `Cc1cccc(CCN2CCC(C(=O)c3ccc(NS(C)(=O)=O)cc3)CC2)n1.Cl.Cl` [E4031, N-[4-[[1-[2-(6-Methyl-2-pyridyl)ethyl]-4-piperidinyl]carbonyl]phenyl]metanesolfonammide dihydrochloride] the “effect on engraftment compared with dexamethasone alone” value [4] was “higher than that produced by dexamethasone alone”, the “apoptosis of ALL cells in the bone marrow” value ([4]; Tunel assay) was “increase” and the “engraftment in the bone marrow” value ([4]; treatment for two weeks starting seven days after inoculum, hCD45+ versus mCD45+ cells) was “reduced”. For the same compound, the MSC mediated chemoresistance [1] was “overcome”.
